Measured values: patent US20080014133A1, “Extraction Of Radionuclides By Crown Ether-Containing Extractants” (priority 2004, published 2008)

Legend:
Type in all cases: physicochemical
[1] = Interaction of extractants with sodium (organic/aqueous phase concentration)
Protocol: The characteristics of the extractants according to the invention in the process of extraction of sodium from acidic aqueous solutions of high-level waste were determined. For this purpose, the concentration of sodium in the organic and aqueous phases containing extractants based on DTBDB18C6 or DCH18C6 or DB21C7 in a concentration about of 0.05 mol/l in fluoroheptanol n3 were analyzed.

[2] = Extraction of cations of different metals (Table 8); conditions: for Distribution ratios, Pb: initial 0.05 g/l; for Distribution ratios, Mn: initial 0.4 g/l; for Distribution ratios, Ru: initial 0.75 g/l; for Distribution ratios, Ba / Distribution ratios, Cr / Distribution ratios, Cs / Distribution ratios, Sr / Distribution ratios, Zr: initial 1.0 g/l; for Distribution ratios, Ba / Distribution ratios, Al: crown ether 0.05 mol/l in Fluoroheptanol n3 80% / synthanol 20%, nitric acid about 190 g/l; for Distribution ratios, Ca: initial 2.0 g/l; for Distribution ratios, Ni: initial 4.0 g/l; for Distribution ratios, Al: initial 6.0 g/l; for Distribution ratios, Fe / Distribution ratios, Na: initial 10.0 g/l; for Distribution ratios, Rare-earth: initial 25.0 g/l
Description: A process of extraction of cations of different metals from aqueous nitrate solutions was studied by processing them using the extractants according to the invention containing DCH18C6 or DB21C7 in an organic solvent comprising: Fluoroheptanol n3—80% by volume and synthanol—20% by volume at a concentration of crown ethers of 0.05 mol/l and a content of nitric acid about of 190 g/l. For comparison, the data were used given in a patent specification (U.S. Pat. No. 4,749,518, A) describing similar tests of extractants containing Crown XVI or Crown XVII with a cation exchanger—dinanylnaphthalene sulfonic acid in a matrix solution containing tributyl phosphate and kerosene.
The solutions were contacted with the extractants according to the invention in temperature-controlled ([…]) separating funnels for 5 minutes at a ratio of organic and aqueous phases of 1:1. After settling within 60 minutes, the phases were separated, and the aqueous phase was analyzed to determine the concentration of the elements.

[3] = Solubility of crown ethers in water and nitric acid from extractants with different organic solvents
Protocol: The study of solubility of extractants according to the invention and the extractants containing similar crown ethers in other solvents in aqueous and nitrate solutions was carried out.
Taken for the tests were crown ethers containing DCH18C6 or DB21C7 in a concentration of about 0.1 mole/l in different organic solvents. The extractants were mixed with aqueous or nitrate solutions with a content of nitric acid 3 mole/l in a closed thermostatically controlled chamber for 3 hours. Then the obtained water-organic systems were separated. The aqueous part after settling down and filtering was analyzed for a content of crown ethers using photometric measurements.

[4] = Radiation resistance of the extractants (gamma irradiation)
Description: The radiation resistance of the extractants according to the invention used for extraction radionuclides of strontium or cesium was studied. For this purpose, reaction mixtures consisting of biphase water-organic systems containing extractants based on crown ethers DCH18C6 or DB21C7 in Fluoroheptanol n3 and aqueous nitrate waste solutions, and, for comparison, reaction mixtures containing extractants based on crown ethers Crown XVI or Crown XVII with a cation exchanger—dinanylnaphthalene of sulfonic acids in a matrix solution comprising tributyl phosphate and kerosene were irradiated with gamma-rays […] in a temperature-controlled cell of stainless steel with continuous agitation by bubbling. The maximum integrated radiation dose was equal to 285.3 kGr. The extractant samples were tested and the extraction characteristics were measured before and after the irradiation to determine a decrease of the distribution ratio DMe due to the radiological destruction of extractant components.

[5] = Concentration of crown ether in extracted products, dynamic strontium extraction (7.1)
Description: A starting aqueous solution whose composition and concentration of the components are given in Table 3 for a solution No.1 was contacted with the extractant according to the invention containing 0.05 mole/l of DCH18C6 in a solvent containing 20% by volume of synthanol and 80% by volume of Fluoroheptanol n3 in a continuous countercurrent process on a facility with extractors such as “mixer-settler” devices with impulse agitation and phase transportation. The extraction included eight steps of extraction, two washing steps, eight re-extraction steps and two steps of regeneration of the reused extractant.
When running the facility, radiometric monitoring devices were used to control the concentration of strontium in the refined products, re-extracts and reclaims, as well as the concentration of the crown ethers in the extracted products.

[6] = Influence of nitric acid concentration on extraction of sodium; conditions: crown ether about 0.1 mol/l in Fluoroheptanol n3
Protocol: Selected for study were extractants containing crown ethers: DB18C6, DTBDB18C6, DCH18C6 or DB21C7 in a concentration of about 0.1 mol/l in Fluoroheptanol n3. Used as experimental solutions were aqueous solutions of sodium nitrate whose concentration was determined using radiometric techniques on previously added aliquot of a sodium-22 isotope.

[7] = Distribution ratio of cesium extracted in organic solutions of crown ethers (Table 1); conditions: crown ether 0.1 mole/l in Fluoroheptanol n3; Sr and Cs 1 g/l, nitric acid about 3.0 mol/l
Protocol: Study was carried out for determining the distribution ratios of radionuclides, for example, strontium or cesium to be extracted by the extractants according to the invention containing various crown ethers as a complexing agent: bis(tert-butylbenzo)-18-crown-6 (subsequently referred to as DTBDB18C6), di-isooctylbenzo-18-crown-6 (subsequently referred to as DIODB18C6), bis(tert-butylcyclohexane-18-crown-6 (subsequently referred to as DTBDCH18C6), di-isooxyldicyclohexane-18-crown-6 (subsequently referred to as DIODCH18C6), bicyclohexane-18-crown-6 (subsequently referred to as DCH18C6) or dibenzo-21-crown-7 (subsequently referred to as DB21C7), in an organic solvent according to the invention: polyfluorinated telomeric alcohol 1,1,7-trihydrododecafluoroheptanol-1 (subsequently referred to as fluoroheptanol n3).
For comparison, the distribution ratios of strontium and cesium were determined using extractants containing similar crown ethers in another organic solvent (decane).
Taken for the tests were experimental aqueous nitrate solutions containing strontium and cesium in a concentration of 1 g/l with a content of nitric acid of about 3.0 mol/l.

[8] = sodium in the aqueous phase 0.01 mol/l, crown ether about 0.05 mol/l in fluoroheptanol n3
[9] = sodium in the aqueous phase 0.1 mol/l, crown ether about 0.05 mol/l
[10] = sodium in the aqueous phase 0.2 mol/l, crown ether about 0.05 mol/l
[11] = sodium in the aqueous phase 0.4 mol/l, crown ether about 0.05 mol/l
[12] = solvent 2,2-dihydrotrifluoroethyl pentafluoroethyl ether, H2O
[13] = solvent 2,2-dihydrotrifluoroethyl pentafluoroethyl ether, HNO3 3 mole/l
[14] = solvent Fluoroheptanol n3, HNO3 3 mole/l
[15] = solvent Tetrachloroethane, HNO3 3 mole/l, crown ether about 0.1 mole/l, 3 hours
[16] = solvent Trichlorethylene, HNO3 3 mole/l
[17] = solvent Trichlorobenzene, HNO3 3 mole/l

C1CCC2OCCOCCOC3CCCCC3OCCOCCOC2C1 (stereo not drawn) [DCH18C6, bicyclohexane-18-crown-6]
Sodium concentration in the organic phase [1, 8]: 0 mol/L
Sodium concentration in the organic phase [1, 9]: 0.003 mol/L
Sodium concentration in the organic phase [1, 10]: 0.005 mol/L
Sodium concentration in the organic phase [1, 11]: 0.009 mol/L
Distribution ratios, Pb ([2]; same extractant conditions): 4.2
Distribution ratios, Mn ([2]; same extractant conditions): 0.06
Distribution ratios, Ru ([2]; same extractant conditions): 0.16
Distribution ratios, Ba [2]: 2.03
Distribution ratios, Cr ([2]; same extractant conditions): 0.02
Distribution ratios, Cs ([2]; same extractant conditions): 0.02
Distribution ratios, Sr ([2]; same extractant conditions): 3.6
Distribution ratios, Zr ([2]; same extractant conditions): 0.018
Distribution ratios, Ca ([2]; same extractant conditions): 0.12
Distribution ratios, Ni ([2]; same extractant conditions): 0.023
Distribution ratios, Al [2]: 0.03
Distribution ratios, Fe ([2]; same extractant conditions): 0.017
Distribution ratios, Na ([2]; same extractant conditions): 0.01
Distribution ratios, Rare-earth ([2]; same extractant conditions): 0.04
Concentration of crown ether in an aqueous phase [3, 12]: 0.301 mol/l × 10^−3
Concentration of crown ether in an aqueous phase [3, 13]: 0.344 mol/l × 10^−3
Concentration of crown ether in an aqueous phase ([3]; solvent Fluoroheptanol n3, H2O): <0.027 mol/l × 10^−3
Concentration of crown ether in an aqueous phase [3, 14]: 0.086 mol/l × 10^−3
Concentration of crown ether in an aqueous phase ([3]; solvent Tetrachloroethane, H2O): 0.258 mol/l × 10^−3
Concentration of crown ether in an aqueous phase [3, 15]: 0.139 mol/l × 10^−3
Concentration of crown ether in an aqueous phase ([3]; solvent Tetrachloropropane, H2O): 0.968 mol/l × 10^−3
Concentration of crown ether in an aqueous phase ([3]; solvent Tetrachloropropane, HNO3 3 mole/l): 1.72 mol/l × 10^−3
Concentration of crown ether in an aqueous phase ([3]; solvent Trichlorethylene, H2O): 0.65 mol/l × 10^−3
Concentration of crown ether in an aqueous phase [3, 16]: 0.94 mol/l × 10^−3
Concentration of crown ether in an aqueous phase ([3]; solvent Trichlorobenzene, H2O): 1.142 mol/l × 10^−3
Concentration of crown ether in an aqueous phase [3, 17]: 2.016 mol/l × 10^−3
Distribution ratio before irradiation ([4]; Sr): 3.6
Distribution ratio DMe after irradiation ([4]; Sr, dose 100.0 kGr (10^7 rad)): 3.4
Distribution ratio after irradiation, % of original ([4]; Sr, dose 100.0 kGr (10^7 rad)): 94.4%
Distribution ratio DMe after irradiation ([4]; Sr, dose 285.3 kGr): 3.0
Distribution ratio after irradiation, % of original ([4]; Sr, dose 285.3 kGr): 83.3%
Concentration of crown ether in the extracted products ([5]; Re-extract): 172 Mg/l
Concentration of crown ether in the extracted products ([5]; Reclaim): 30 Mg/l
Concentration of crown ether in the extracted products ([5]; Refined product): 80 Mg/l
Distribution ratios of sodium ([6]; nitric acid 0 mol/l): 0.1
Distribution ratios of sodium ([6]; nitric acid 0.1 mol/l): 0.12
Distribution ratios of sodium ([6]; nitric acid 0.5 mol/l): 0.12
Distribution ratios of sodium ([6]; nitric acid 1.0 mol/l): 0.05
Distribution ratios of sodium ([6]; nitric acid 3.0 mol/l): 0.02
Distribution ratios of sodium ([6]; nitric acid 5.0 mol/l): 0.01

c1ccc2c(c1)OCCOCCOCCOc1ccccc1OCCOCCO2 [DB21C7, dibenzo-21-crown-7]
Sodium concentration in the organic phase [1, 8]: 0 mol/L
Sodium concentration in the organic phase [1, 9]: 0.01 mol/L
Sodium concentration in the organic phase [1, 10]: 0.018 mol/L
Sodium concentration in the organic phase [1, 11]: 0.035 mol/L
Distribution ratios, Pb ([2]; same extractant conditions): 0.02
Distribution ratios, Rb ([2]; initial 0.12 g/l, same extractant conditions): 0.02
Distribution ratios, Pd ([2]; initial 0.3 g/l, same extractant conditions): 0.03
Distribution ratios, Mn ([2]; same extractant conditions): 0.04
Distribution ratios, Ru ([2]; same extractant conditions): 0.004
Distribution ratios, Ba [2]: 1.02
Distribution ratios, Cr ([2]; same extractant conditions): 0.02
Distribution ratios, Cs ([2]; same extractant conditions): 1.8
Distribution ratios, Sr ([2]; same extractant conditions): 0.02
Distribution ratios, Zr ([2]; same extractant conditions): 0.038
Distribution ratios, Ca ([2]; same extractant conditions): 0.02
Distribution ratios, Ni ([2]; same extractant conditions): 0.03
Distribution ratios, Al [2]: 0.02
Distribution ratios, Fe ([2]; same extractant conditions): 0.014
Distribution ratios, Na ([2]; same extractant conditions): 0.047
Distribution ratios, Rare-earth ([2]; same extractant conditions): 0.04
Distribution ratio Cesium [7]: 10.7
Concentration of crown ether in an aqueous phase [3, 12]: 0.071 mol/l × 10^−3
Concentration of crown ether in an aqueous phase [3, 13]: 0.112 mol/l × 10^−3
Concentration of crown ether in an aqueous phase ([3]; solvent Fluoroheptanol n3, H2O): <0.025 mol/l × 10^−3
Concentration of crown ether in an aqueous phase [3, 14]: 0.068 mol/l × 10^−3
Concentration of crown ether in an aqueous phase ([3]; solvent Tetrachloroethane, H2O): 0.173 mol/l × 10^−3
Concentration of crown ether in an aqueous phase [3, 15]: 0.159 mol/l × 10^−3
Remarks ([3]; solvent Tetrachloropropane): Insoluble
Concentration of crown ether in an aqueous phase ([3]; solvent Trichlorethylene, H2O): 0.188 mol/l × 10^−3
Concentration of crown ether in an aqueous phase [3, 16]: 0.218 mol/l × 10^−3
Concentration of crown ether in an aqueous phase ([3]; solvent Trichlorobenzene, H2O): 0.168 mol/l × 10^−3
Concentration of crown ether in an aqueous phase [3, 17]: 0.173 mol/l × 10^−3
Distribution ratio before irradiation ([4]; Cs): 2.83
Distribution ratio DMe after irradiation ([4]; Cs, dose 100.0 kGr (10^7 rad)): 2.83
Distribution ratio after irradiation, % of original ([4]; Cs, dose 100.0 kGr (10^7 rad)): 100.0%
Distribution ratio DMe after irradiation ([4]; Cs, dose 285.3 kGr): 2.65
Distribution ratio after irradiation, % of original ([4]; Cs, dose 285.3 kGr): 93.8%
Distribution ratios of sodium ([6]; nitric acid 0 mol/l): 0
Distribution ratios of sodium ([6]; nitric acid 0.1 mol/l): 0
Distribution ratios of sodium ([6]; nitric acid 0.5 mol/l): 0.005
Distribution ratios of sodium ([6]; nitric acid 1.0 mol/l): 0.01
Distribution ratios of sodium ([6]; nitric acid 3.0 mol/l): 0.1
Distribution ratios of sodium ([6]; nitric acid 5.0 mol/l): 0.12
